# Measured values from patent US20210261621A1, “Preparation of Dilipid Polymixins and Use Thereof as Antimicrobial Adjuvants” (priority 2018, published 2021).
# Read-outs that look alike come from different tables or passages of the source. Positions of bridges follow the written chain, without caps; N, C: chain ends. Non-standard residues stand in square brackets, D forms with d. Residues, ends and D or L forms follow the SMILES beside them. *: point of attachment. Acetyl(1-adamantyl) = O=C(CC12CC3CC(CC(C3)C1)C2)*; Benzoyl(4-Ph) = O=C(c1ccc(-c2ccccc2)cc1)*; Dab = NCC[C@H](N)C(=O)O
# Experiments:
# E. faecalis ATCC 29212 = assay type: cell-based; details: E. faecalis ATCC 29212
# Source text: (§1) Bacterial strains were either obtained from the American Type Culture Collection (ATCC), Canadian National Intensive Care Unit (CAN-ICU) surveillance study or the Canadian Ward Surveillance (CANWARD) study. Strains from both CAN-ICU and CANWARD are isolates recovered from patients diagnosed with a presumed infectious disease that were admitted in a participating medical center across Canada. Efflux-deficient strain PAO200 (lacking MexAB-OprM efflux system) and PA0750 (lacking MexAB-OprM, MexCD-OprJ, MexEF-OprN, MexJK and MexXY efflux systems, and the outer membrane protein OpmH) were kindly gifted by Dr. Ayush Kumar (University of Manitoba).
# (§2) The in vitro antibacterial activity of the compounds studied were assessed by broth microdilution susceptibility testing following CLSI guidelines. Bacterial cultures were grown overnight prior to the assay. The overnight grown cultures were diluted in saline to 0.5 McFarland turbidity, followed by 1:50 dilution in Mueller-Hinton broth (MHB) for inoculation to a final concentration of approximately 5×10^5 colony forming units/mL. Testing was performed on 96-well plates where the tested compounds were 2-fold serially diluted in MHB and incubated with equal volumes of bacterial inoculum at 37° C. for 18 h. […] Wells containing MHB with or without bacterial cells were used as positive or negative control, respectively.
# E. faecium ATCC 27270 = assay type: cell-based; details: E. faecium ATCC 27270
# Source text: as §1, §2
# S. pneumoniae ATCC 49619 = assay type: cell-based; details: S. pneumoniae ATCC 49619
# Source text: as §1, §2
# S. aureus ATCC 29213 = assay type: cell-based, Staphylococcus aureus; details: S. aureus ATCC 29213
# Source text: as §1, §2
# MRSA ATCC 33592 = assay type: cell-based, Staphylococcus aureus; details: for MIC: MRSA ATCC 33592 (methicillin-resistant Staphylococcus aureus)
# Source text: as §1, §2
# E. coli 94474 = assay type: cell-based, Escherichia coli
# Procedure: (§3) We then addressed the possibility for the dilipid polymyxins to display enhanced antibacterial activity against colistin-resistant Gram-negative pathogens. […] The extended hydrophobic region of the dilipid polymyxin may provide additional hydrophobic interactions to the outer membrane of colistin-resistant organisms. Eight MDR colistin-resistant Gram-negative bacterial isolates were tested, including two E. coli isolates harboring the mcr-1 plasmid-encoded polymyxin resistance gene. We found no difference between the antibacterial activity of dilipid polymyxins and colistin against colistin-resistant Gram-negative bacteria (Table 3).
# as §1, §2
# E. coli 94393 = assay type: cell-based, Escherichia coli
# Procedure: as §3, §1, §2
# A. baumannii 92247 = assay type: cell-based, Acinetobacter baumannii
# Procedure: as §3, §1, §2
# P. aeruginosa PAO750 = details: P. aeruginosa PAO750, efflux-deficient strain that lacks five pumps and OpmH
# Source text: (§4) To our curiosity, we explored whether efflux can affect the activity of polymyxins. It is widely accepted that polymyxins disrupt Gram-negative bacterial membranes that result to intracellular component leakage and bacterial cell death. However, for this to occur requires the agent to reach the periplasmic space to interact and disrupt the inner membrane. Active efflux may potentially expel polymyxins out of the periplasm, effectively reducing its periplasmic and intracellular concentrations. To study the effect of efflux on polymyxins in Gram-negative pathogens, we used P. aeruginosa as they inherently overexpress efflux systems such as MexAB-OprM, MexCD-OprJ and MexXY-OprM. Moreover, antibiotic substrates for these efflux systems are mostly characterized. We evaluated and compared the activity of the dilipid polymyxins, colistin and PMBN against wild-type PAO1 and two efflux-deficient P. aeruginosa isogenic mutants (Table 5). The strain PAO200 lacks the MexAB-OprM efflux system while strain PAO750 lacks five clinically-relevant pumps (MexAB-OprM, MexCD-OprJ, MexEF-OprN, MexJK and MexXY) and outer membrane protein OpmH.
# as §1, §2
# P. aeruginosa PAO200 = details: for MIC: P. aeruginosa PAO200, efflux-deficient strain that lacks the MexAB-OprM pump
# Source text: as §4, §1, §2
# E. cloacae 117029 = assay type: cell-based, Enterobacter cloacae; details: E. cloacae 117029
# Source text: as §1, §2
# E. coli CAN-ICU 63074 = assay type: cell-based, Escherichia coli; details: E. coli CAN-ICU 63074
# Source text: as §1, §2
# E. coli ATCC 25922 = assay type: cell-based, Escherichia coli; details: E. coli ATCC 25922
# Source text: as §1, §2
# E. coli CAN-ICU 61714 = assay type: cell-based, Escherichia coli; details: E. coli CAN-ICU 61714
# Source text: as §1, §2
# E. coli 107115 = assay type: cell-based, Escherichia coli; details: E. coli 107115
# Source text: as §1, §2
Compound,MIC (E. faecalis ATCC 29212) [µg/mL],MIC (E. faecium ATCC 27270) [µg/mL],MIC (S. pneumoniae ATCC 49619) [µg/mL],MIC (S. aureus ATCC 29213) [µg/mL],MIC (MRSA ATCC 33592) [µg/mL],MIC (E. coli 94474; 94474) [µg/mL],MIC (E. coli 94393; 94393) [µg/mL],MIC (A. baumannii 92247; 92247) [µg/mL],MIC (P. aeruginosa PAO750) [µg/mL],MIC (P. aeruginosa PAO200) [µg/mL],MIC (E. cloacae 117029) [µg/mL],MIC (E. coli CAN-ICU 63074) [µg/mL],MIC (E. coli ATCC 25922) [µg/mL],MIC (E. coli CAN-ICU 61714) [µg/mL],MIC (E. coli 107115) [µg/mL],fold better MIC than colistin (MRSA ATCC 33592; methicillin-resistant Staphylococcus aureus) [fold],"MIC (E. coli 94474; E. coli 94474, colistin-resistant multidrug-resistant isolate) [µg/mL]","MIC (E. coli 94393; E. coli 94393, colistin-resistant multidrug-resistant isolate) [µg/mL]","MIC (A. baumannii 92247; A. baumannii 92247, colistin-resistant multidrug-resistant isolate) [µg/mL]","difference in MIC among the three P. aeruginosa strains tested (P. aeruginosa PAO200; PAO1, PAO200, PAO750)"
"CC(C)C[C@@H]1NC(=O)[C@@H](Cc2ccccc2)NC(=O)[C@H](CCN)NC(=O)[C@@H](NC(=O)[C@H](CCN)NC(=O)[C@@H](NC(=O)[C@H](CCNC(=O)CC23CC4CC(CC(C4)C2)C3)NC(=O)CC23CC4CC(CC(C4)C2)C3)[C@@H](C)O)CCNC(=O)[C@H]([C@@H](C)O)NC(=O)[C@H](CCN)NC(=O)[C@H](CCN)NC1=O [Compound 4, Diadamantane Acetic Acid (Di-Adamantyl) Polymyxin] ({Acetyl(1-adamantyl)}-[Dab](Acetyl(1-adamantyl))T[Dab][Dab][Dab][dF]L[Dab][Dab]T; lactam 4-C)",32,16,32,16,32,8,16,8,8,4,4,64,4,64,4,,,,,
"CC(C)C[C@@H]1NC(=O)[C@@H](Cc2ccccc2)NC(=O)[C@H](CCN)NC(=O)[C@@H](NC(=O)[C@H](CCN)NC(=O)[C@@H](NC(=O)[C@H](CCNC(=O)c2ccc(-c3ccccc3)cc2)NC(=O)c2ccc(-c3ccccc3)cc2)[C@@H](C)O)CCNC(=O)[C@H]([C@@H](C)O)NC(=O)[C@H](CCN)NC(=O)[C@H](CCN)NC1=O [Compound 5, Dibiphenyl-4-Carboxylic Acid (Di-Biphenyl) Polymyxin] ({Benzoyl(4-Ph)}-[Dab](Benzoyl(4-Ph))T[Dab][Dab][Dab][dF]L[Dab][Dab]T; lactam 4-C)",16,8,32,8,16,8,16,8,4,4,8,32,8,32,4,32,,,,
colistin [reference compound],256,256,512,256,512,,,,0.5,0.5,0.125,≤0.5,0.5,0.5,0.5,,16,4,4,no difference
